Measurements as given in patent publication US20110288011A1, “PEPTIDE THERAPEUTIC CONJUGATES AND USES THEREOF” (priority 2008, published 2011).
Entries after “also recorded” stand apart in the source; their conditions may differ. Square brackets hold non-standard residues; d marks the D form. Ends that are not written are not given here. Peptide text beside a SMILES is read from it. pGlu = O=C1CC[C@@H](C(=O)O)N1

Legend:
NTSR1 = NTSR1 (Homo sapiens, UniProt P30989); assay: biochemical
mice [1] = assay: Body temperature (hypothermia induction) in mice; format: in vivo; details: for Δ Max temp: mouse, in vivo
Method: We also tested whether higher doses of the conjugate would results in greater induction of hypothermia.
At this time, the infusion was increased to 40 mg/kg/hr.

rats = assay: Body temperature (sustained hypothermia) in rats; format: in vivo
Method: A similar experiment was performed in rats.
A similar experiment was conducted in rats.
A further experiment, conducted over a 12-hour period, was also performed in rats.

mice brains = assay: In situ brain perfusion of iodinated NT and NT-An2; format: in vivo
From the text: Following iodination, mice brains were perfused in the carotid artery with either [^125I]-NT or the [^125I]-NT-An2 derivative in Krebs buffer for the indicated times. After the indicated times, brains were further perfused for 30 sec to washout the excess of both compound. Both [^125I]-NT or [^125I]-NT-An2 derivative in brain were quantified using a […]. Results are expressed in terms of brain volume of distribution (ml/100 g) as a function of time.
Brain capillary depletion was performed using Dextran following standard procedures. Both [^125I]-NT or [^125I]-NT-An2 derivative present in brain, capillaries, and parenchyma were quantified and volume of distribution (ml/100 g/2 min) is reported.
To confirm that the NT-An2 conjugate crosses the BBB, both NT and the conjugate were iodinated using standard procedures, and in situ brain perfusion was performed using methods standard in the art. The initial transport was measured as a function of time (FIG. 42). […] Higher levels of NT-An2 were found in the brain parenchyma when compared to NT.

mice [2] = assay: Hot plate test (analgesia) in mice; details: 15 minutes following injection, NT-An2 20 mg/kg, buprenorphine 1 mg/kg
ob/ob mice = assay: Treatment of obese (ob/ob) mice with Exen-An2: body weight, food intake, glycemia; format: in vivo, mouse; details: higher doses (exendin-4 30 μg/kg, Exen-An2 48 μg/kg), vs control
Method: The body weight of each mouse was measured daily. Food intake was estimated based on the mean values for each group, and glycemia was measured one hour following treatment.

DIO mice = assay: Glycemia in DIO mice after bolus injection; format: in vivo, mouse; details: vs control
Method: We also tested the ability of the exendin-4-Angiopep-2 dimer conjugate to reduce glycemia in DIO mice. Mice were injected with a bolus containing a control, exendin-4, or the exendin-4-Angiopep-2 dimer conjugate.

mouse brain = details: in vivo
Method: To measure brain uptake of the exendin-4/Angiopep-2 conjugates, we used an in situ perfusion assay. […] Briefly, the right common carotid artery of mice anesthetized with ketamine/xylazine (140/8 mg/kg i.p.) was exposed and ligated at the level of the bifurcation of the common carotid, rostral to the occipital artery. The common carotid was then catheterized rostrally with polyethylene tubing filled with heparin (25 U/ml) and mounted on a 26-gauge needle. […] Prior to the perfusion, the contralateral blood flow contribution was eliminated by severing the heart ventricles. […] Mice were then decapitated to terminate perfusion and the right hemisphere was isolated on ice before being subjected to capillary depletion. Aliquots of homogenates, supernatants, pellets, and perfusates were taken to measure their contents and to evaluate the apparent volume of distribution.

blood-brain barrier = details: mouse, in vivo

NTSR1, sequence (P30989 whole entry): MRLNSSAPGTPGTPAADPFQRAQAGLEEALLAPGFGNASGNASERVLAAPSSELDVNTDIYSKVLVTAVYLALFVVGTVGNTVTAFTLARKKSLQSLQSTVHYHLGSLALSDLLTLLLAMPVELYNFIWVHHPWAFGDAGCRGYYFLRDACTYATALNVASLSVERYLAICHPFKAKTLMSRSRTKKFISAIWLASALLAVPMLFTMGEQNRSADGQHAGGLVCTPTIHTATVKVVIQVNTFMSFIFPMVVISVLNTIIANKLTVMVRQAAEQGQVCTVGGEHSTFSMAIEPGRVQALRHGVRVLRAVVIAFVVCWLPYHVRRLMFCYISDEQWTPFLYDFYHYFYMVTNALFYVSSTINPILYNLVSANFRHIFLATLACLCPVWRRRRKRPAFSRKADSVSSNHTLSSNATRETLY

**Q.** `CC[C@H](C)[C@H](NC(=O)[C@@H](Cc1ccc(O)cc1)NC(=O)[C@@H]1CCCN1C(=O)[C@H](CCCNC(=N)N)NC(=O)[C@H](CCCNC(=N)N)NC(=O)[C@H](CCCCN)NC(C)=O)C(=O)N[C@@H](CC(C)C)C(=O)O` [AcLysNT(8-13)D-tyr11, Ac-KRRPD-YIL-OH] (Ac-KRRP[dY]IL-OH) was tested. Which IC50 (NTSR1) did it give?
**A.** 5390 nM

**Q.** With `CC[C@H](C)[C@H](NC(=O)[C@H](Cc1ccc(O)cc1)NC(=O)[C@@H]1CCCN1C(=O)[C@H](CCCNC(=N)N)NC(=O)[C@H](CCCNC(=N)N)NC(=O)[C@H](CCCCN)NC(=O)[C@@H]1CCC(=O)N1)C(=O)N[C@@H](CC(C)C)C(=O)O` [pGlu-Lys-NT(8-13)] ([pGlu]KRRPYIL-OH; C-terminus assumed) as the compound, how does the IC50 (NTSR1) read?
**A.** 1.3 nM

**Q.** With “NT-An2: Neurotensin Angiopep-2-Cys amide conjugate via EMCS/MHA linker; different production batches” as the compound, how does the “reduction in body temperature” value (mice [1]; mice, 5, 15, or 20 mg/kg, monitored for 120 minutes) read?
**A.** Small differences between these higher doses

**Q.** What about the body temperature (mice [1]; mice, i.v. bolus 20 mg/kg then 20 mg/kg/hr for 2.5 hours, then 40 mg/kg/hr, 360 minute time course) of the same compound?
**A.** reduction in body temperature

**Q.** And the “effect on body temperature” value (mice [1]; mice, i.v. bolus, monitored 120 minutes, conjugates compared with control)?
**A.** greatest reduction in body temperature; also recorded: larger effect

**Q.** What about the body temperature (mice [1]; mice, intravenous, NT 1 mg/kg or equivalent dose of conjugate (2.5 mg/kg)) of the same compound?
**A.** rapid decrease in the body temperature

**Q.** What about the body temperature (mice [1]; mice, intravenous, NT-An2 5 mg/kg) of the same compound?
**A.** stronger decrease in body temperature

**Q.** And the “Δ Max temp” value (mice [1]; listed as ANG-NT (prep #1))?
**A.** −4 to −5 °C

**Q.** What about the “Δ Max temp” value (mice [1]; listed as ANG-NT (prep #2)) of the same compound?
**A.** −4 to −5 °C

**Q.** And the “Δ Max temp” value (mice [1]; listed as ANG-NT (prep #3))?
**A.** −3 to −4 °C

**Q.** And the “Δ Max temp” value (mice [1]; listed as ANG-NT (prep #4))?
**A.** −2 to −4 °C

**Q.** What about the body temperature (rats; 40 mg/kg i.v. bolus followed by infusion, 12-hour period, 40 mg/kg) of the same compound?
**A.** sustained reduction in body temperature; also recorded: prolonged reduction of body temperature

**Q.** What about the body temperature (rats; i.v. 20 mg/kg then 20 mg/kg/hr infusion, 360-minute time course) of the same compound?
**A.** sustained reduction in body temperature

**Q.** What about the maximal temperature drop (rats; i.v. bolus 20 mg/kg then 20 mg/kg/hr for […], after 90 minutes) of the same compound?
**A.** about 3.5 °C

**Q.** And the “trapping in the brain capillaries” value (mice brains; 2 min in situ perfusion, capillary depletion)?
**A.** not trapped in the brain capillaries

**Q.** And the “levels in the brain parenchyma” value (mice brains; 2 min in situ perfusion, capillary depletion, compared to NT)?
**A.** Higher levels

**Q.** What about the initial brain uptake (mice brains; in situ brain perfusion, as a function of time, iodinated compounds) of the same compound?
**A.** higher than for the unconjugated NT

**Q.** And the “latency of foot licking behavior (hot plate)” value (mice [2])?
**A.** increased the latency of foot licking behavior in a statistically significant manner

**Q.** What does the source list for exendin-4?
**A.** body weight gain (ob/ob mice; after 10 days of daily treatment): lower than the control; also recorded: reduce weight gain; food intake (ob/ob mice): reduced; also recorded: reduce food intake; glycemia (DIO mice): reduced glycemia; brain distribution (mouse brain): 0.2 ml/100 g/2 min

**Q.** With “leptin(116-130) (SCHLPWASGLETLDS-NH2; UniProt P41159 116-130, looked up, fragment) [leptin116-130]” as the compound, how does the “transport across the BBB” value (blood-brain barrier) read?
**A.** reduced as compared to in lean mice
